Measured values: US4200575A, “7[(2-Thiazolyl)-2-(oxoimino)acetamido]cephalosporin derivatives” (Takeda Chemical Industries, Ltd., priority 1977, dated 1980)

How the values were obtained:
Test in all cases: Minimal inhibitory concentration (M.I.C.), agar dilution method
Conditions in all cases: TSA, inoculum 10^7 /ml
S. aureus 1840 = assay type: cell-based, Staphylococcus aureus
Source text: (§1) (a) Determination of minimal inhibitory concentrations (Tables 1 to 8):
(§2) Procedure: agar dilution method

S. aureus 209P = assay type: cell-based, Staphylococcus aureus
Source text: as §1, §2

E. coli NIHJ JC-2 = assay type: cell-based, Escherichia coli
Source text: as §1, §2

E. coli T-7 = assay type: cell-based, Escherichia coli
Source text: as §1, §2

E. coli 0-111 = assay type: cell-based, Escherichia coli
Source text: The minimal inhibitory concentrations (M.I.C.) of some representative cephalosporin derivatives of this invention as produced by the procedures described in those examples and the minimal inhibitory concentrations of cephalothin [sodium 7-(2-thienylacetamido)-3-acetoxymethyl-3-cephem-4-carboxylate], cephaloridine [7-(2-thienylacetamido)-3-(1-pyridyl)methyl-3-cephem-4-carboxylic acid betaine] and cefazolin [sodium 7-(1H-tetrazol-1-yl)acetamido-3-(2-methyl-1,3,4-thiadiazol-5-yl)thiomethyl-3-cephem-4-carboxylate], which are among the clinically established and commercially available cephalosporins (as described, for example, in the New England Journal of Medicine 294, 24, 1976 and Journal of Pharmaceutical Science 64, 1899, 1975), both against various bacteria, as well as the therapeutic effects of some respresentative cephalosporin derivatives of this invention and of cephaloridine in infected mice, are shown in tables.
as §1, §2

K. pneumoniae DT = assay type: cell-based, Klebsiella pneumoniae
Source text: as §1, §2

K. pneumoniae GN 3835 = assay type: cell-based, Klebsiella pneumoniae
Source text: as §1, §2

S. marcescens IFO 12648 = assay type: cell-based, Serratia marcescens
Source text: as §1, §2

S. marcescens TN 24 = assay type: cell-based, Serratia marcescens
Source text: as §1, §2

P. vulgaris GN 4413 = assay type: cell-based, Proteus vulgaris
Source text: as §1, §2

P. vulgaris IFO 3988 = assay type: cell-based, Proteus vulgaris
Source text: as §1, §2

P. mirabilis GN 4359 = assay type: cell-based, Proteus mirabilis
Source text: as §1, §2

P. morganii IFO 3168 = assay type: cell-based, Proteus morganii
Source text: as §1, §2

P. rettgeri GN4733 = assay type: cell-based, Proteus rettgeri
Source text: as §1, §2

P. rettgeri TN 338 = assay type: cell-based, Proteus rettgeri
Source text: as §1, §2

E. cloacae TN 1282 = assay type: cell-based, Enterobacter cloacae
Source text: as §1, §2

C. freundii GN 1706 = assay type: cell-based, Citrobacter freundii
Source text: as §1, §2

C. freundii GN 99 = assay type: cell-based, Citrobacter freundii
Source text: as §1, §2

Compound	minimal inhibitory concentration (M.I.C.) (S. aureus 1840)	minimal inhibitory concentration (M.I.C.) (S. aureus 209P)	minimal inhibitory concentration (M.I.C.) (E. coli NIHJ JC-2)	minimal inhibitory concentration (M.I.C.) (E. coli T-7)	minimal inhibitory concentration (M.I.C.) (E. coli 0-111)	minimal inhibitory concentration (M.I.C.) (K. pneumoniae DT)	minimal inhibitory concentration (M.I.C.) (K. pneumoniae GN 3835)	minimal inhibitory concentration (M.I.C.) (S. marcescens IFO 12648)	minimal inhibitory concentration (M.I.C.) (S. marcescens TN 24)	minimal inhibitory concentration (M.I.C.) (P. vulgaris GN 4413)	minimal inhibitory concentration (M.I.C.) (P. vulgaris IFO 3988)	minimal inhibitory concentration (M.I.C.) (P. mirabilis GN 4359)	minimal inhibitory concentration (M.I.C.) (P. morganii IFO 3168)	minimal inhibitory concentration (M.I.C.) (P. rettgeri GN4733)	minimal inhibitory concentration (M.I.C.) (P. rettgeri TN 338)	minimal inhibitory concentration (M.I.C.) (E. cloacae TN 1282)	minimal inhibitory concentration (M.I.C.) (C. freundii GN 1706)	minimal inhibitory concentration (M.I.C.) (C. freundii GN 99)
CC(C)NC(=O)O/N=C(\C(=O)NC1C(=O)N2C(C(=O)O)=C(COC(N)=O)CSC12)c1csc(=N)[nH]1 (centres unmarked) [Example II - 17]	3.13	1.56	0.39	3.13	0.05	0.1	0.39	6.25	25	100	0.39	0.1	1.56	0.1	≤ 0.012	6.25	0.78	0.39
CNC(=O)O/N=C(\C(=O)NC1C(=O)N2C(C(=O)O)=C(CSc3cnn[nH]3)CSC12)c1csc(=N)[nH]1 (centres unmarked) [Example IV - 9]	3.13	3.13	0.78	3.13	≤ 0.2	≤ 0.2	0.78	6.25	6.25	25	0.39	0.39	0.78	1.56	≤ 0.2	6.25	1.56	0.78
CCCCNC(=O)O/N=C(\C(=O)NC1C(=O)N2C(C(=O)O)=C(CSc3nnnn3C)CSC12)c1csc(=N)[nH]1 (centres unmarked) [Example II - 22]	3.13	0.78	0.39	6.25	0.024	0.1	0.78	6.25	5.13	12.5	0.1	0.39	0.78	0.1	≤ 0.012	12.5	0.78	0.2
CC(=O)OCC1=C(C(=O)O)N2C(=O)C(NC(=O)/C(=N\OC(=O)NC3CCCCC3)c3csc(=N)[nH]3)C2SC1 (centres unmarked) [Example II - 24]	1.56	0.78	0.1	1.56	0.024	0.05	0.39	6.25	12.5	25	0.1	0.1	0.39	0.05	≤ 0.012	3.13	0.78	0.39
CNC(=O)O/N=C(\C(=O)NC1C(=O)N2C(C(=O)O)=C(CSc3nnc(CC(N)=O)s3)CSC12)c1csc(=N)[nH]1 (centres unmarked) [Example IV - 6]	3.13	1.56	≤ 0.2	3.13	≤ 0.2	≤ 0.2	0.39	3.13	3.15	25	≤ 0.2	0.39	≤ 0.2	0.39	≤ 0.2	3.13	≤ 0.78	≤ 0.2
CCCNC(=O)O/N=C(\C(=O)NC1C(=O)N2C(C(=O)O)=C(COC(N)=O)CSC12)c1csc(=N)[nH]1 (centres unmarked) [Example II - 13]	3.13	1.56	0.2	1.56	0.05	0.05	0.2	6.25	25	50	0.39	0.1	3.13	0.1	≤ 0.012	6.25	0.78	0.1
Cc1nnc(SCC2=C(C(=O)[O-])N3C(=O)C(NC(=O)Cn4cnnn4)[C@H]3SC2)s1.[Na+] (some centres unmarked) [Cefazolin, sodium 7-(1H-tetrazol-1-yl)acetamido-3-(2-methyl-1,3,4-thiadiazol-5-yl)thiomethyl-3-cephem-4-carboxylate, reference compound]	1.56	0.39	1.56	50	1.56	1.56	6.25	> 100	> 100	> 100	3.13	6.25	100	100	≤ 0.2		> 100	12.5
